US6566304B1, “Biogenic control and limitation of the reproduction of parasitic earth nematodes in stock culture” (priority 1998, dated 2003)

Columns and labels:
Type in all cases: in vivo
[1] = test system: nematode Meloidogyne incognita; assay: Example 4 pot test with tomatoes: gall index of root system; conditions: Example 4, tomatoes, 8 weeks; scale 1 to 10 (1=undamaged, 10=completely damaged root system); comparators: Aldicarb 1 ppm; fertilized control N/P corresponds to 40 g/m^2 TerraPy B
Procedure: (§1) Tomatoes were pregerminated in a temperature-controlled (18° C.) greenhouse and, at the two-leaf stage, the plants were each transplanted in a plastic pot (9×9 cm) filled with 500 g of a mixture of field soil and sand (1:1). The test substances were applied 2 days after transplanting. One day later, each pot was inoculated with 1,000 larvae of the nematode Meloidogyne incognita. 8 Weeks later, the test was terminated and the density of the nematodes and also the shoot and root weights of the plants were determined.
(§2) The following variants (with 10 repetitions each) were selected for the tests:
(§3) fertilized control (quantity of N/P corresponds to 40 g/m^2 TerraPy B)
(§4) control treated with nematicide (Aldicarb, 1 ppm)
(§5) The gall index is a measure of the damage caused to the root system by the nematodes and is basically a scale of 1 to 10 where 1=undamaged and 10=completely damaged root system.

[2] = test system: nematode Meloidogyne incognita; assay: Example 5 pot test with tomatoes: gall index of root system; conditions: Example 5, tomatoes, 8 weeks; scale 1 to 10; comparators: Aldicarb 1 ppm; fertilized control N/P corresponds to 40 g/m^2 TerraPy B
Procedure: as §5, §1
(§6) The following variants (with 8 repetitions each) were selected for the tests:
as §3, §4
(§7) The object of this test was to investigate the smaller effective dose of the product.

tomatoes [3] = assay: Example 4 pot test with tomatoes: plant growth
Procedure: as §1, §2, §3, §4

[4] = test system: microorganisms (bacteria per g of soil); assay: Example 4 pot test with tomatoes: soil microorganisms
Procedure: as §1, §2, §3, §4

[5] = test system: microorganisms (bacteria per g of soil); assay: Example 3 pot test with sugar beet: soil microorganisms
[6] = test system: nematode Meloidogyne incognita; assay: Example 7 pot test with tomatoes, combination with mycorrhiza: galls on root system; conditions: Aldicarb 1 ppm, fertilized control N/P corresponds to 2 g/m^2 TerraPy B, TerraPy B 2 g/m^2, mycorrhiza 0.2%
Procedure: (§8) Tomato seeds were planted in plastic pots (9×9 cm) each filled with 320 g of a mixture of field soil and sand (1:1) in a temperature-controlled greenhouse (18° C.). The test substances were applied 29 days after emergence. Two days later, each pot was inoculated with 1,500 larvae of the nematode Meloidogyne incognita. 9 Weeks later, the test was terminated and the density of the nematodes and the shoot and root weights of the plants were determined.
as §2
(§9) fertilized control (quantity of N/P corresponds to 2 g/m^2 TerraPy B)
(§10) nematicide-treated control (Aldicarb, 1 ppm)
(§11) mycorrhiza fungus mixture 0.2%
(§12) TerraPy B 2 g/m^2 plus mycorrhiza 0.2%
(§13) The mycorrhiza fungus mixture contained a mixed population of various Glomus strains of the species Glomus sclerocystis and G. gigasporum with 950 infectious units per cm^3 (=0.64 g per pot). The mixture was mixed with the pot soil after dilution to 0.2% at the beginning of the test.

tomatoes [7] = assay: Example 5 pot test with tomatoes: plant growth; conditions: Example 5, tomatoes, 1,000 M. incognita larvae per pot, 8 weeks; comparators: Aldicarb 1 ppm; fertilized control N/P corresponds to 40 g/m^2 TerraPy B
Procedure: as §1, §6, §3, §4, §7

sugar beet = assay: Example 3 pot test with sugar beet: plant growth
Procedure: (§14) Sugar beet was pregerminated in a temperature-controlled (18° C.) greenhouse and, at the two-leaf stage, the plants were each transplanted in a plastic pot (9×9 cm) filled with 500 g of a mixture of field soil and sand (1:1). The test substances were applied 2 days after transplanting. One day later, each pot was inoculated with 500 larvae of the nematode Heterodera schachtii. 6 Weeks later, the test was terminated and the density of the nematodes and also the shoot and root weights of the plants were determined.
as §2
(§15) fertilized control (quantity of N/P corresponds to 40 g/m^2 TerraPy G)
as §4

tomatoes [8] = assay: Example 6 pot test with tomatoes, reduction of nematicides: plant growth
Procedure: (§16) Tomatoes were pregerminated in a temperature-controlled (18° C.) greenhouse and, at the two-leaf stage, the plants were each transplanted in a plastic pot (9×9 cm) filled with 500 g of a mixture of field soil and sand (1:1). The test substances were applied 2 days after transplanting. One day later, each pot was inoculated with 1,000 larvae of the nematode Meloidogyne incognita. 6 Weeks later, the test was terminated and the density of the nematodes and also the shoot and root weights of the plants were determined.
(§17) The following variants (with 10 repetitions each) were selected for the tests: fertilized control (quantity of N/P corresponds to 40 g/m^2 TerraPy B) control treated with nematicide (Aldicarb, 1 ppm)
(§18) TerraPy B 20 g/m^2 plus Aldicarb 0.1 ppm
(§19) In addition, pots with all the variants mentioned above which had not been inoculated with nematodes were included in the tests.

tomatoes [9] = assay: Example 7 pot test with tomatoes, combination with mycorrhiza: plant growth; conditions: Example 7, tomatoes, 1,500 M. incognita larvae per pot, 9 weeks; Aldicarb 1 ppm; fertilized control N/P corresponds to 2 g/m^2 TerraPy B; TerraPy B 2 g/m^2; mycorrhiza 0.2%
Procedure: as §8, §2, §9, §10, §11, §12, §13

[10] = test system: nematode Meloidogyne incognita; assay: Example 6 pot test with tomatoes, reduction of nematicides: gall index; conditions: Example 6, tomatoes, 6 weeks; Aldicarb 1 ppm; fertilized control N/P corresponds to 40 g/m^2 TerraPy B; TerraPy B 20 g/m^2; TerraPy B 20 g/m^2 plus Aldicarb 0.1 ppm
Procedure: as §5, §16, §17, §18, §19

[11] = test system: nematode Heterodera schachtii; assay: Example 3 pot test with sugar beet: nematode cysts on roots; conditions: Example 3, sugar beet, 6 weeks; comparators: Aldicarb 1 ppm; fertilized control N/P corresponds to 40 g/m^2 TerraPy G
Procedure: as §14, §2, §15, §4

[12] = test system: microorganisms (bacteria per g of soil); assay: Example 5 pot test with tomatoes: soil microorganisms
Procedure: as §1, §6, §3, §4, §7

[13] = Example 4, tomatoes, 8 weeks, comparators: Aldicarb 1 ppm, fertilized control N/P corresponds to 40 g/m^2 TerraPy B
[14] = 2 days, comparators: Aldicarb 1 ppm, fertilized control
[15] = 14 days, comparators: Aldicarb 1 ppm, fertilized control
[16] = 56 days, comparators: Aldicarb 1 ppm, fertilized control

CNC(=O)O/N=C/C(C)(C)SC [Aldicarb]
Gall index [1]: 3.9
Gall index [2]: 4.2
plant growth / plant weight, in words (tomatoes [3]; Example 4, tomato pot test): not effective in increasing plant weight
Root length in cm (tomatoes [3]; [13]): 12.0 cm
Root weight (tomatoes [3]; [13]): 1.5 g
Shoot weight (tomatoes [3]; Example 4, tomatoes, 1,000 M. incognita larvae per pot, 8 weeks, comparators: Aldicarb 1 ppm, fertilized control N/P corresponds to 40 g/m^2 TerraPy B): 4.7 g
effect on bacteria / microorganisms, in words [4]: harmful effect
bacteria per g of soil, 2 Days after application [4, 14]: 1 × 10^7 bacteria per g of soil
bacteria per g of soil, 14 Days after application [4, 15]: 4 × 10^7 bacteria per g of soil
bacteria per g of soil, 56 Days after application [4, 16]: 1 × 10^6 bacteria per g of soil
effect on bacteria / microorganisms, in words [5]: harmful effect
bacteria per g of soil, 2 Days after application [5, 14]: 7 × 10^6 bacteria per g of soil
bacteria per g of soil, 14 Days after application [5, 15]: 8 × 10^6 bacteria per g of soil
bacteria per g of soil, 56 Days after application [5, 16]: 1 × 10^7 bacteria per g of soil
Number of galls per root system ([6]; Example 7, tomatoes, 9 weeks): 22
Number of galls per root system, In percent ([6]; Example 7, unfertilized untreated control = 100%): 19%
Shoot weight (tomatoes [7]): 4.2 g
plant growth / plant weight, in words (sugar beet; Example 3, sugar beet pot test): not effective in increasing plant weight
Root weight (sugar beet; Example 3, sugar beet, 6 weeks, comparators: Aldicarb 1 ppm, fertilized control N/P corresponds to 40 g/m^2 TerraPy G): 0.7 g
Shoot weight (sugar beet; Example 3, sugar beet, 500 H. schachtii larvae per pot, 6 weeks, comparators: Aldicarb 1 ppm, fertilized control N/P corresponds to 40 g/m^2 TerraPy G): 2.1 g
plant growth / plant weight, in words (tomatoes [8]; Example 6, tomato pot test): completely ineffective
Root weight (tomatoes [8]; Example 6, tomatoes, 6 weeks, Aldicarb 1 ppm, fertilized control N/P corresponds to 40 g/m^2 TerraPy B, TerraPy B 20 g/m^2, TerraPy B 20 g/m^2 plus Aldicarb 0.1 ppm): 1.8 g
Shoot weight (tomatoes [8]; Example 6, tomatoes, 1,000 M. incognita larvae per pot, 6 weeks, Aldicarb 1 ppm, fertilized control N/P corresponds to 40 g/m^2 TerraPy B, TerraPy B 20 g/m^2, TerraPy B 20 g/m^2 plus Aldicarb 0.1 ppm): 3 g
Shoot weight (tomatoes [9]): 4.2 g
Gall index [10]: 0.5
Nematode cysts per g root weight [11]: 15 per g root weight
effect on bacteria / microorganisms, in words [12]: harmful effect
bacteria per g of soil, 2 Days after application [12, 14]: 6 × 10^6 bacteria per g of soil
bacteria per g of soil, 14 Days after application [12, 15]: 1 × 10^6 bacteria per g of soil
bacteria per g of soil, 56 Days after application [12, 16]: 5 × 10^5 bacteria per g of soil
